pIC50: −log10 of the molar value.
Legend:
Vaccinia virus = conditions: l929
Adenosylhomocysteinase [1] = target: Adenosylhomocysteinase (Mus musculus, UniProt P50247); test: biochemical
Adenosylhomocysteinase [2] = target: T1, Adenosylhomocysteinase (Homo sapiens, UniProt P23526)
Adenosylhomocysteinase [3] = target: T1, Adenosylhomocysteinase; remark: listed apart in the source

T1 sequence (P23526 whole entry): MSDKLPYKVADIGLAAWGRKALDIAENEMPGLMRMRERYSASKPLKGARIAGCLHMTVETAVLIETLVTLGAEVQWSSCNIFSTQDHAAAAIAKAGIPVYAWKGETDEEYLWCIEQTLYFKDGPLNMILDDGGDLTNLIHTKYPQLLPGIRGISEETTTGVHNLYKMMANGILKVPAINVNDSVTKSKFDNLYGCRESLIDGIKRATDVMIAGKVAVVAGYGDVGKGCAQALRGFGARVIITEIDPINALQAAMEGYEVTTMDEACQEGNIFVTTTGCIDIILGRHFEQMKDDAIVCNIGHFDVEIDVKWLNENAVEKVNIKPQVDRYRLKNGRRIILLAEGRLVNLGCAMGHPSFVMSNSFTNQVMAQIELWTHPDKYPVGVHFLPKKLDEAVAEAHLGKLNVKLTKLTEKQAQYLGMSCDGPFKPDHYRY
Sequence of Adenosylhomocysteinase (Mus musculus, UniProt P50247) (P50247 whole entry): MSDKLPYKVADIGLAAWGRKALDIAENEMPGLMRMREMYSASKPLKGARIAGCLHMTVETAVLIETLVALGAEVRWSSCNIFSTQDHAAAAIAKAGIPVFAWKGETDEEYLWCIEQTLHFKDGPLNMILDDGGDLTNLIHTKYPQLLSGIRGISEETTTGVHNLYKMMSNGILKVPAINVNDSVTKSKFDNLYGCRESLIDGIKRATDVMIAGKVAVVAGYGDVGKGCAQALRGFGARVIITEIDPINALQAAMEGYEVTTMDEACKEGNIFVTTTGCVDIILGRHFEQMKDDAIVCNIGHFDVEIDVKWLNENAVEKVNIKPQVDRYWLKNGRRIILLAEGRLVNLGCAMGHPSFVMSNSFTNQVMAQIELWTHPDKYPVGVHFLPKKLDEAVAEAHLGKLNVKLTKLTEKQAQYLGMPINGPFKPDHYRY

| Structure (SMILES) | pIC50 (Vaccinia virus) | pIC50 (Adenosylhomocysteinase [1]) | IC50 (Adenosylhomocysteinase [2]) | Ki (Adenosylhomocysteinase [3]) |
| --- | --- | --- | --- | --- |
| Nc1ncnc2c1ncn2C/C=C\CO | 3.97 | 3.84 | Not Active |  |
| Nc1nccc2c1ncn2C/C=C/CO | 4.40 |  |  | Not Active |
| Nc1nccc2c1ncn2C/C=C\[C@@H](O)CO | 4.15 | 4.21 | Not Active |  |
| Nc1ncnc2c1ncn2C/C=C\[C@@H](O)CO | 4.00 | 4.00 | Not Active |  |
| Nc1ncnc2c1ncn2[C@@H]1C=C(CO)[C@@H](O)[C@H]1O [NEOPLANOCIN A] | 7.10 | 7.30 | Not Active |  |
| C/C(=C\Cn1cnc2c(N)ncnc21)CO | 3.52 |  | Not Active |  |
| Nc1ncnc2c1ncn2C/C=C(/CO)[C@@H](O)CO.Nc1ncnc2c1ncn2C/C=C(\CO)[C@@H](O)CO | 3.77 |  | Not Active |  |
| Nc1nccc2c1ncn2C/C=C\CO | 3.52 | 3.70 | Not Active |  |
| Nc1ncnc2c1ncn2C/C=C/C(O)CO (configuration not stated) | 3.60 |  |  | Not Active |
| Nc1nccc2c1ncn2CC=C(CO)CO | 3.30 | 3.96 | Not Active |  |
| Nc1ncnc2c1ncn2CC=C(CO)CO | 3.15 | 4.19 | Not Active |  |
| C/C(=C/Cn1cnc2c(N)ncnc21)CO | 3.66 | 3.70 | Not Active |  |
| Nc1ncnc2c1ncn2C/C=C/CO | 3.96 | 3.64 | Not Active |  |
| Nc1nccc2c1ncn2CC#CCO | 3.52 | 3.70 | Not Active |  |
| CC(C)=CCn1cnc2c(N)ncnc21 | 4.22 |  |  | Not Active |
| Nc1ncnc2c1ncn2CC#CCO | < 3.49 |  |  | Not Active |

Source: ChEMBL document CHEMBL1124198, “Potential inhibitors of S-adenosylmethionine-dependent methyltransferases. 11. Molecular dissections of neplanocin A as potential inhibitors of S-adenosylhomocysteine hydrolase” (J Med Chem, 1988)
